For data set [1] the following is noted: healthy volunteers, total daily dose 100-1000 mg, less than 14 days; cited from earlier work.
The subject of data set [2] is Amyloid A. Kind of data set: Study DG-031-201: amyloid A in serum. The settings on record: difference visit 2 to 5; 500 and 750 mg/day vs placebo. Format: in vivo, human. As for the experimental part:
Genet. 2004). Apart from FLAP, allele A of the SNP SG12S25 in the LTA4 hydrolase gene, another gene in the LT pathway, is also associated with MI, as described in PCT application no. PCT/US03/32556 and PCT/US04/30582 incorporated by reference.
Patients who met the study eligibility criteria were enrolled and randomized into 3 different dose-level groups: (1) 64 patients on 250 mg/day therapy with DG-031 (250 mg q.d.), vs placebo; (2) 64 patients on 500 mg/day therapy with DG-031 (250 mg b.i.d.) vs placebo; and (3) 63 patients on 750 mg/day therapy with DG-031 (250 mg t.i.d.) vs placebo. […] All patients received 3 tablets per day. Treatment periods, 4 weeks in duration each, were separated by a 2-week washout period. The placebo tablets were identical in shape, color, form and taste to the active tablets except that they contained no active drug ingredients. Treatment with DG-031 or placebo was in addition to the subject's standard care, including all medications and treatment plan as prescribed by the subject's cardiologist prior to enrolment. […]
All data were analyzed according to a pre-established statistical analysis plan (SAP) and by intention-to-treat (ITT). […] The difference between DG-031 and placebo treatment was the primary outcome, assessed separately for each of the biomarkers. […]

Regarding `O=C(O)[C@@H](c1ccc(OCc2ccc3ccccc3n2)cc1)C1CCCC1` [DG-031, (R)-(+)-alpha-cyclopentyl-4-(2-quinolinylmethoxy)-Benzeneacetic acid], the Safety and tolerability entry in data set [1] is “safe and well tolerated”. For the same molecule, the “Carry-over effect, Amyloid A” value in data set [2] is recorded as −0.14.

(Values after US20090030037A1, “Sustained Release Formulation and Dosing Schedules of Leukotriene Synthesis Inhibitor for Human Therapy” (deCODE Genetics ehf., priority 2005, published 2009).)
